The values below come from patent publication US20260297081A1, “COMPOUNDS AND METHODS OF TREATING CANCERS” (Cullgen Inc., priority 2023, published 2026).

Where only a bound is given, the exact number is not on record here.

This experiment concerns the target CDK4 (Homo sapiens, UniProt P11802+Q16531). As to the kind of experiment: CDK4 percentage degradation in Calu-1 cells (Table 6). Type of experiment: cell-based. Set-up: Cells that express cyclin D1-3 and CDK4/6 proteins were treated with heterobifunctional compounds; endogenous in cells; host or cells: Calu-1. Particulars: 16 hours; for inhibition at 0.04 µM: 40 nM; for inhibition at 0.2 µM: 200 nM. The essentials: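 Calu-1 cells exposed to heterobifunctional compounds at 40 nM or 200 nM for 16 h. Cyclin D1 and CDK4 levels measured by Western blot of RIPA lysates (BCA-normalised loading), bands quantified by densitometry and expressed as percentage degradation.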

CDK4, sequence (P11802 2-303 limits assumed): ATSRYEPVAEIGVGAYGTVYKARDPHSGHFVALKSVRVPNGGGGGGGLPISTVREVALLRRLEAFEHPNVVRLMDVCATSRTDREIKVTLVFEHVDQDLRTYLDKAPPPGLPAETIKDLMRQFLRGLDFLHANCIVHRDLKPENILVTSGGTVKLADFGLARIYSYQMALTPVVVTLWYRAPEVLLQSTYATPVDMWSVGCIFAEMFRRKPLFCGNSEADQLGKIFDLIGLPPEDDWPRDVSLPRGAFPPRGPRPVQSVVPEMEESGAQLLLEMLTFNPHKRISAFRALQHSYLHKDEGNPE
CDK4, sequence (P24385 whole entry partner): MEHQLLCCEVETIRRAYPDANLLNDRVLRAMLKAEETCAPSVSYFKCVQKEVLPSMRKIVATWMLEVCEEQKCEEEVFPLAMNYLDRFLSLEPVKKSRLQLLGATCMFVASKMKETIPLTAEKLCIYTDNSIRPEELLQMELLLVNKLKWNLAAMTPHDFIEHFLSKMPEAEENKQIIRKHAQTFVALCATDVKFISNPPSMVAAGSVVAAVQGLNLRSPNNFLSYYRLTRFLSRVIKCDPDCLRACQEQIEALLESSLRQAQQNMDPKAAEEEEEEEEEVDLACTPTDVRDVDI
CDK4, sequence (Q16531 2-1140 limits assumed): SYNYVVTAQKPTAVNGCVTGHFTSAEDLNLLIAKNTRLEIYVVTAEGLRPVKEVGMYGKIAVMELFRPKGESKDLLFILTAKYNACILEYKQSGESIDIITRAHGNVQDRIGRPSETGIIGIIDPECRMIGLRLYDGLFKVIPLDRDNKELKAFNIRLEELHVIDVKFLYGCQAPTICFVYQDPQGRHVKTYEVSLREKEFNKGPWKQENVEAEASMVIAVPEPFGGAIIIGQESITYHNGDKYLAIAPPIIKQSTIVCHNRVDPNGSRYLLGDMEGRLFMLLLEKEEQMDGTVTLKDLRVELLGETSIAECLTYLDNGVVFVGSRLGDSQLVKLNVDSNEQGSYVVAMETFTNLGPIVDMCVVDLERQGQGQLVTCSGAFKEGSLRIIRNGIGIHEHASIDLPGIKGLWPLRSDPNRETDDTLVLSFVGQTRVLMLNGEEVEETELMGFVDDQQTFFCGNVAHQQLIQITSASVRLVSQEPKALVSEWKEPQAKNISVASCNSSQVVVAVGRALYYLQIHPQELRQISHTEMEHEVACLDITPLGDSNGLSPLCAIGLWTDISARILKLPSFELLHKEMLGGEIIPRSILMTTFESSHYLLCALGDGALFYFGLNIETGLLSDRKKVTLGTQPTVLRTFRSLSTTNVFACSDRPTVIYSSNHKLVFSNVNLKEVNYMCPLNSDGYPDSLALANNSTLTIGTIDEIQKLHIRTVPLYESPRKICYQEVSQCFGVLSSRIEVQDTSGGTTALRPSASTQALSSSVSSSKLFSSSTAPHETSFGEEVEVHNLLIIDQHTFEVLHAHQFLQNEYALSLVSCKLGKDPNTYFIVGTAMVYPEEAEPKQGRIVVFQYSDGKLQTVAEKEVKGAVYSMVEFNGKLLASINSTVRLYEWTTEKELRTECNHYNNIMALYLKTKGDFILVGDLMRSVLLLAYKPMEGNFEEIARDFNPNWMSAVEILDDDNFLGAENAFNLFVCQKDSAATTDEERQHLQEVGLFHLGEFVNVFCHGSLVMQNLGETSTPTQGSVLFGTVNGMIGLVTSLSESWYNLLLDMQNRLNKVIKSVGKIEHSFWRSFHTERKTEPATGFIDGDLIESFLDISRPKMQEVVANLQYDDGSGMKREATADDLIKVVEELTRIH

Take `CC(=O)c1c(C)c2cnc(Nc3ccc(N4CCN(CC(=O)NCCC5CC(Nc6cc(Cl)ccc6C(=O)Nc6ccc(N(C)C)nn6)C5)CC4)cn3)nc2n(C2CCCC2)c1=O` (stereo not shown) [CPD-257, 2-((3-(2-(2-(4-(6-((6-Acetyl-8-cyclopentyl-5-methyl-7-oxo-7,8-dihydropyrido[2,3-d]pyrimidin-2-yl)amino)pyridin-3-yl)piperazin-1-yl)acetamido)ethyl)cyclobutyl)amino)-4-chloro-N-(6-(dimethylamino)pyridazin-3-yl)benzamide]: the inhibition at 0.04 µM is below 30% and the inhibition at 0.2 µM is 30 to 50%.

Compound `CNc1ccc(C(=O)Nc2ccc(C)c(C)n2)c(NC2CC3(CC(NC(=O)CN4CCN(c5ccc(Nc6ncc7c(C)c(C(C)=O)c(=O)n(C8CCCC8)c7n6)nc5)CC4)C3)C2)n1` (stereo not shown) [CPD-182, 2-((6-(2-(4-(6-((6-acetyl-8-cyclopentyl-5-methyl-7-oxo-7,8-dihydropyrido[2,3-d]pyrimidin-2-yl)amino)pyridin-3-yl)piperazin-1-yl)acetamido)spiro[3.3]heptan-2-yl)amino)-N-(5,6-dimethylpyridin-2-yl)-6-(methylamino)nicotinamide] had an inhibition at 0.04 µM of 30 to 50% and an inhibition at 0.2 µM of 30 to 50%.

Compound `CNc1ccc(C(=O)Nc2ccc(=O)[nH]n2)c(NCCCCCNC(=O)CN2CCN(c3ccc(Nc4ncc5c(C)c(C(C)=O)c(=O)n(C6CCCC6)c5n4)nc3)CC2)n1` [CPD-77, 2-((5-(2-(4-(6-((6-Acetyl-8-cyclopentyl-5-methyl-7-oxo-7,8-dihydropyrido[2,3-d]pyrimidin-2-yl)amino)pyridin-3-yl)piperazin-1-yl)acetamido)pentyl)amino)-6-(methylamino)-N-(6-oxo-1,6-dihydropyridazin-3-yl)nicotinamide] gave an inhibition at 0.04 µM below 30% and an inhibition at 0.2 µM below 30%.

As for `CNc1ccc(C(=O)Nc2ccc(N(C)C)nn2)c(NC2CC(CCC(=O)N3CCN(c4ccc(Nc5ncc6c(C)c(C(C)=O)c(=O)n(C7CCCC7)c6n5)nc4)CC3)C2)n1` (stereo not shown) [CPD-185, 2-((3-(3-(4-(6-((6-acetyl-8-cyclopentyl-5-methyl-7-oxo-7,8-dihydropyrido[2,3-d]pyrimidin-2-yl)amino)pyridin-3-yl)piperazin-1-yl)-3-oxopropyl)cyclobutyl)amino)-N-(6-(dimethylamino)pyridazin-3-yl)-6-(methylamino)nicotinamide], the inhibition at 0.04 µM is below 30% and the inhibition at 0.2 µM lay within 30 to 50%.

In turn, `CNc1ccc(C(=O)Nc2ccc(Cl)c(C3CC3)n2)c(NCCCCCNC(=O)CN2CCN(c3ccc(Nc4ncc5c(C)c(C(C)=O)c(=O)n(C6CCCC6)c5n4)nc3)CC2)n1` [CPD-112, 2-((5-(2-(4-(6-((6-Acetyl-8-cyclopentyl-5-methyl-7-oxo-7,8-dihydropyrido[2,3-d]pyrimidin-2-yl)amino)pyridin-3-yl)piperazin-1-yl)acetamido)pentyl)amino)-N-(5-chloro-6-cyclopropylpyridin-2-yl)-6-(methylamino)nicotinamide] showed an inhibition at 0.04 µM below 30% and an inhibition at 0.2 µM below 30%.

Regarding `CNc1ccc(C(=O)Nc2cn(C(C)C)c(C)n2)c(NC2CC3(CC(NC(=O)CN4CCN(c5ccc(Nc6ncc7c(C)c(C(C)=O)c(=O)n(C8CCCC8)c7n6)nc5)CC4)C3)C2)n1` (stereo not shown) [CPD-238, 2-((6-(2-(4-(6-((6-acetyl-8-cyclopentyl-5-methyl-7-oxo-7,8-dihydropyrido[2,3-d]pyrimidin-2-yl)amino)pyridin-3-yl)piperazin-1-yl)acetamido)spiro[3.3]heptan-2-yl)amino)-N-(1-isopropyl-2-methyl-1H-imidazol-4-yl)-6-(methylamino)nicotinamide], the inhibition at 0.04 µM is below 30% and the inhibition at 0.2 µM was below 30%.

In turn, `CCc1ccc(C(=O)Nc2cccc(C3CC3)n2)c(NC2CC3(CC(NC(=O)CN4CCN(c5ccc(Nc6ncc7c(C)c(C(C)=O)c(=O)n(C8CCCC8)c7n6)nc5)CC4)C3)C2)n1` (stereo not shown) [CPD-124, 2-((6-(2-(4-(6-((6-Acetyl-8-cyclopentyl-5-methyl-7-oxo-7,8-dihydropyrido[2,3-d]pyrimidin-2-yl)amino)pyridin-3-yl)piperazin-1-yl)acetamido)spiro[3.3]heptan-2-yl)amino)-N-(6-cyclopropylpyridin-2-yl)-6-ethylnicotinamide] displayed an inhibition at 0.04 µM of 30 to 50% and an inhibition at 0.2 µM of 30 to 50%.

As for `CNc1ccc(C(=O)Nc2ccc(N(C)C)nn2)c(NC2CCN(CCNC(=O)CN3CCN(c4ccc(Nc5ncc6c(C)c(C(C)=O)c(=O)n(C7CCCC7)c6n5)nc4)CC3)C2)n1` (stereo not shown) [CPD-106, 2-((1-(2-(2-(4-(6-((6-Acetyl-8-cyclopentyl-5-methyl-7-oxo-7,8-dihydropyrido[2,3-d]pyrimidin-2-yl)amino)pyridin-3-yl)piperazin-1-yl)acetamido)ethyl)pyrrolidin-3-yl)amino)-N-(6-(dimethylamino)pyridazin-3-yl)-6-(methylamino)nicotinamide], the inhibition at 0.04 µM was in the range of 30 to 50% and the inhibition at 0.2 µM was in the range of 50 to 80%.

Take `CNc1ccc(C(=O)Nc2ccc(N(C)C)nn2)c(NC2CC3(CC(CC(=O)N4CCN(c5ccc(Nc6ncc7c(C)c(C(C)=O)c(=O)n(C8CCCC8)c7n6)nc5)CC4)C3)C2)n1` (stereo not shown) [CPD-147, 2-((6-(2-(4-(6-((6-acetyl-8-cyclopentyl-5-methyl-7-oxo-7,8-dihydropyrido[2,3-d]pyrimidin-2-yl)amino)pyridin-3-yl)piperazin-1-yl)-2-oxoethyl)spiro[3.3]heptan-2-yl)amino)-N-(6-(dimethylamino)pyridazin-3-yl)-6-(methylamino)nicotinamide]: the inhibition at 0.04 µM fell in the range of 30 to 50% and the inhibition at 0.2 µM is 50 to 80%.

`CNc1ccc(C(=O)Nc2ccc(N3CCCC3)nn2)c(NCCCCCNC(=O)CN2CCN(c3ccc(Nc4ncc5c(C)c(C(C)=O)c(=O)n(C6CCCC6)c5n4)nc3)CC2)n1` [CPD-17, 2-((5-(2-(4-(6-((6-Acetyl-8-cyclopentyl-5-methyl-7-oxo-7,8-dihydropyrido[2,3-d]pyrimidin-2-yl)amino)pyridin-3-yl)piperazin-1-yl)acetamido)pentyl)amino)-6-(methylamino)-N-(6-(pyrrolidin-1-yl)pyridazin-3-yl)nicotinamide] gave an inhibition at 0.04 µM below 30% and an inhibition at 0.2 µM of 30 to 50%.

Consider `CNc1ccc(C(=O)Nc2ccc(C3CC3)nc2)c(NC2CC3(CC(NC(=O)CN4CCN(c5ccc(Nc6ncc7c(C)c(C(C)=O)c(=O)n(C8CCCC8)c7n6)nc5)CC4)C3)C2)n1` (stereo not shown) [CPD-74, 2-((6-(2-(4-(6-((6-Acetyl-8-cyclopentyl-5-methyl-7-oxo-7,8-dihydropyrido[2,3-d]pyrimidin-2-yl)amino)pyridin-3-yl)piperazin-1-yl)acetamido)spiro[3.3]heptan-2-yl)amino)-N-(6-cyclopropylpyridin-3-yl)-6-(methylamino)nicotinamide], for which the inhibition at 0.04 µM was below 30% and the inhibition at 0.2 µM is below 30%.

Compound `CC(=O)c1c(C)c2cnc(Nc3ccc(N4CCN(CC(=O)NCCCCCCCNc5nc(-c6ccc(C#N)nc6)ccc5C(=O)Nc5nc(C)c(C)s5)CC4)cn3)nc2n(C2CCCC2)c1=O` [CPD-142] gave an inhibition at 0.04 µM below 30%.

On to `CNc1ccc(C(=O)Nc2cc(C)n(C)n2)c(NC2CC3(CC(NC(=O)CN4CCN(c5ccc(Nc6ncc7c(C)c(C(C)=O)c(=O)n(C8CCCC8)c7n6)nc5)CC4)C3)C2)n1` (stereo not shown) [CPD-70, 2-((6-(2-(4-(6-((6-Acetyl-8-cyclopentyl-5-methyl-7-oxo-7,8-dihydropyrido[2,3-d]pyrimidin-2-yl)amino)pyridin-3-yl)piperazin-1-yl)acetamido)spiro[3.3]heptan-2-yl)amino)-N-(1,5-dimethyl-1H-pyrazol-3-yl)-6-(methylamino)nicotinamide], for which the inhibition at 0.04 µM lay within 50 to 80% and the inhibition at 0.2 µM was in the range of 50 to 80%.

`CC(=O)c1c(C)c2cnc(Nc3ccc(N4CCN(CC(=O)NC(C)CCCCNc5nc(C6CC6)ccc5C(=O)Nc5ccc(C)c(C6CC6)n5)CC4)cn3)nc2n(C2CCCC2)c1=O` (stereo not shown) [CPD-60, 2-((5-(2-(4-(6-((6-Acetyl-8-cyclopentyl-5-methyl-7-oxo-7,8-dihydropyrido[2,3-d]pyrimidin-2-yl)amino)pyridin-3-yl)piperazin-1-yl)acetamido)hexyl)amino)-6-cyclopropyl-N-(6-cyclopropyl-5-methylpyridin-2-yl)nicotinamide] yielded an inhibition at 0.04 µM of 50 to 80% and an inhibition at 0.2 µM of 50 to 80%.

As to `[2H]C([2H])([2H])Nc1ccc(C(=O)Nc2cccc(C3CC3)n2)c(NC2CC3(CC(NC(=O)CN4CCN(c5ccc(Nc6ncc7c(C)c(C(C)=O)c(=O)n(C8CCCC8)c7n6)nc5)CC4)C3)C2)n1` (stereo not shown) [CPD-163, 2-((6-(2-(4-(6-((6-acetyl-8-cyclopentyl-5-methyl-7-oxo-7,8-dihydropyrido[2,3-d]pyrimidin-2-yl)amino)pyridin-3-yl)piperazin-1-yl)acetamido)spiro[3.3]heptan-2-yl)amino)-N-(6-cyclopropylpyridin-2-yl)-6-((methyl-d3)amino)nicotinamide], the inhibition at 0.04 µM fell in the range of 50 to 80% and the inhibition at 0.2 µM lay within 50 to 80%.

Consider `CNc1ccc(C(=O)Nc2cc(C)cc(C3CC3)n2)c(NCCCCCNC(=O)CN2CCN(c3ccc(Nc4ncc5c(C)c(C(C)=O)c(=O)n(C6CCCC6)c5n4)nc3)CC2)n1` [CPD-53, 2-((5-(2-(4-(6-((6-Acetyl-8-cyclopentyl-5-methyl-7-oxo-7,8-dihydropyrido[2,3-d]pyrimidin-2-yl)amino)pyridin-3-yl)piperazin-1-yl)acetamido)pentyl)amino)-N-(6-cyclopropyl-4-methylpyridin-2-yl)-6-(methylamino)nicotinamide], for which the inhibition at 0.04 µM was 50 to 80% and the inhibition at 0.2 µM was in the range of 50 to 80%.
